These are literature values, as cited in patent US20040131981A1, “Color developing solution of silver halide color photographic photosensitive material and manufacturing method of color developing solution” (priority 2002, published 2004).

Several values for one entry are separate records, joined by “and”; a condition that tells them apart may be missing. Equal entries are not always repeated.

The conditions of one data set: Compound I, pH buffering agent of alkali part solution.
As for `CNCC(=O)O` [Compound I-2, H3C—NH—CH2—COOH], the Pka is recorded as 10.01. For `CC(N)C(=O)O` (stereo not drawn) [Compound I-3], the Pka was 9.87. On to `NCCC(=O)O` [Compound I-4, H2N—C2H4—COOH], for which the Pka is 10.26. For `CCC(N)C(=O)O` (stereo not drawn) [Compound I-5], the Pka is 9.66.

Consider `CCCCC(N)C(=O)O` (stereo not drawn) [Compound I-7], for which the Pka is reported as 9.96. Turning to `CC(C)CC(N)C(=O)O` (stereo not drawn) [Compound I-8], the Pka is given as 9.78. Take `NC(Cc1ccccc1)C(=O)O` (stereo not drawn) [Compound I-9]: the Pka was 9.18. For `NC(CO)C(=O)O` (stereo not drawn) [Compound I-11], the Pka is recorded as 9.12. For the compound `NC(CS)C(=O)O` (stereo not drawn) [Compound I-13], the Pka was 10.28. With `CSCCC(N)C(=O)O` (stereo not drawn) [Compound I-14], the Pka was 9.13.

On to `NC(CC(=O)O)C(=O)O` (stereo not drawn) [Compound I-15], for which the Pka was 9.62. `NC(CCC(=O)O)C(=O)O` (stereo not drawn) [Compound I-16]: the Pka is 9.67.

Consider `NCC(N)C(=O)O` (stereo not drawn) [Compound I-17], for which the Pka is reported as 9.50.

As for `NCCCCC(N)C(=O)O` (stereo not drawn) [Compound I-19], the Pka is 10.72 and 9.18.

As to `N=C(N)NCCCC(N)C(=O)O` (stereo not drawn) [Compound I-20], the Pka was 9.08. For `CCNCC(=O)O` [Compound I-21, H5C2—NH—CH2—COOH], the Pka is on record as 10.10. As to `CCCNCC(=O)O` [Compound I-22, CH3CH2CH2—NH—CH2COOH], the Pka is given as 10.03. `CN(C)CC(=O)O` [Compound I-24]: the Pka was 9.80. `CCN(CC)CC(=O)O` [Compound I-25]: the Pka is on record as 10.47. In the case of `CC1CCNC1C(=O)O` (stereo not drawn) [Compound I-26], the Pka is 10.68. As to `CC1C(O)CNC1C(=O)O` (stereo not drawn) [Compound I-27], the Pka was 9.58. `NC(Cc1c[nH]c2ccccc12)C(=O)O` (stereo not drawn) [Compound I-28]: the Pka is 9.55. Consider `NC1(C(=O)O)CCCC1` [Compound I-29], for which the Pka is reported as 10.31.

`NC1(C(=O)O)CCCCC1` [Compound I-30]: the Pka is on record as 10.13. Turning to `NC1(C(=O)O)CCCCCC1` [Compound I-31], the Pka is on record as 10.46.

Staying with this data set, now noted: Compound II, pH buffering agent of alkali part solution.
Turning to `NCCN(CC(=O)O)CC(=O)O` [II-25], the Pka is 11.05.

For the compound `O=C(O)CNCCNCC(=O)O` [II-26, HOOCH2C—NH—C2H4—NH—CH2COOH], the Pka is recorded as 9.57. As to `O=C(O)CCNCCNCCC(=O)O` [II-27, HOOCH4C2—NH—C2N4—NH—C2H4COOH], the Pka is 9.58. As to `O=C(O)CN(CCN(CC(=O)O)C1CCCCC1)CC(=O)O` [II-29], the Pka was 10.15.

Turning to `O=C(O)CN(CCN(CC(=O)O)C1CCCCC1O)CC(=O)O` (stereo not drawn) [II-30], the Pka is recorded as 10.38. Turning to `O=C(O)CN(CCN(CC(=O)O)c1ccccc1)CC(=O)O` [II-31], the Pka is listed as 9.84. As for `CCNCCN` [II-34, N-ethylethylenediamine], the Pka was 10.56.

For the compound `NCCNCCO` [II-37, N-(2-hydroxyethyl)ethylenediamine], the Pka is given as 10.12. As to `CN(C)CCN` [II-38], the Pka is 10.00. Turning to `CCN(CC)CCN` [II-39], the Pka is reported as 10.02. As to `CNCCNC` [II-40], the Pka is recorded as 10.29. Regarding `CN(C)CCN(C)C` [II-44], the Pka is 10.13.

Consider `CC(N)C(C)N` (stereo not drawn) [II-46, NH2—CH(CH3)—CH(CH3)—NH2], for which the Pka is listed as 9.97. `NCCCN` [II-47, H2N—C3H6—NH2]: the Pka is reported as 10.62. For `NCCCCN` [II-48, H2N—C4H8—NH2], the Pka is 10.82 and 9.61. Take `NCCCCCN` [II-49, H2N—C5H10—NH2]: the Pka is 10.96 and 10.02.

Regarding `NC1CCCCC1N` (stereo not drawn) [II-50], the Pka is 9.99(cis). `NC1CCCCC1N` (stereo not drawn) [II-51]: the Pka is listed as 9.89(trans). With `NC1CCCCCC1N` (stereo not drawn) [II-52], the Pka is 10.48. For `NCC(CN)CN` [II-54], the Pka was 9.94 and 9.13.

Take `NCCCNCCCN` [II-55, H2N—C3H6—NH—C3H6—NH2]: the Pka is 11.70 and 10.77. Consider `NCCNCCNCCN` [II-56, triethylenetetramine], for which the Pka was 9.92 and 9.20. Take `NCC(CN)CN` [II-57, 1,3-diamino-2-aminomethylpropane]: the Pka was 9.92 and 9.20.

Staying with this data set, now noted: Compound III, pH buffering agent of alkali part solution.
As for `O=C(O)CNCC(=O)O` [III-1], the Pka was 9.12. `O=C(O)CCNCCC(=O)O` [III-2]: the Pka is 10.31. For the compound `CN(CC(=O)O)CC(=O)O` [III-3], the Pka is 10.60.

Regarding `CC(C)(C)CCN(CC(=O)O)CC(=O)O` [III-4], the Pka is recorded as 10.24. Turning to `O=C(O)CN(CCS)CC(=O)O` [III-5], the Pka is listed as 10.79.

On to `O=C(O)CN(CCCO)CC(=O)O` [III-6], for which the Pka is 9.24. Take `O=C(O)CN(CC(=O)O)Cc1ccc(O)cc1` [III-7]: the Pka is given as 11.79.

Turning to `O=C(O)CN(CC(=O)O)CP(=O)(O)O` [III-8], the Pka is on record as 10.76. Take `O=C(O)CN(CCP(=O)(O)O)CC(=O)O` [III-9]: the Pka is listed as 10.46.

With `NCCN(CCN)CCN` [III-14], the Pka is reported as 9.60. Take `COCCN` [III-16, CH3—O—C2H4—NH2]: the Pka is on record as 9.61. For the compound `OCCNCCO` [III-17], the Pka is recorded as 9.00.

Still in this data set, the particulars now being: PH buffering agent of alkali part solutions B1-B34, Table 3.
With `CC(N)C(=O)O` (stereo not drawn) [Compound I-3], the pka was 9.87 and 10.26.

As for `NCCC(=O)O` [Compound I-4, H2N—C2H4—COOH], the pka is 10.26. Turning to `NC(CC(=O)O)C(=O)O` (stereo not drawn) [Compound I-15], the pka was 9.62.

For the compound `N=C(N)NCCCC(N)C(=O)O` (stereo not drawn) [Compound I-20], the pka was 9.08. Take `O[Si](O)(O)O` [H2SiO2(OH)2, reference compound]: the pka is on record as 13.1. As for `O=C(O)CNCC(=O)O` [III-1], the pka is 9.12. On to `OCCNCCO` [III-17], for which the pka is 9.00. Turning to `O=C([O-])[O-].[K+].[K+]` [K2CO3 (carbonic acid)], the pka is recorded as 10.33.

The data set is the same for the next values; noted with them: pH buffering agents with pKa 5 to 9 for fixing and bleaching-fixing solution.
Regarding `CCNCCN` [II-34, N-ethylethylenediamine], the pKa (usually the pH at which an ionisable group is half protonated) is 7.63.

On to `NCCNCCO` [II-37, N-(2-hydroxyethyl)ethylenediamine], for which the pKa was 7.21. On to `NCCNCCNCCN` [II-56, triethylenetetramine], for which the pKa is 6.67. Regarding `NCC(CN)CN` [II-57, 1,3-diamino-2-aminomethylpropane], the pKa is listed as 6.44. As to `CCN(CC)CCN` [N,N-diethylethylenediamine], the pKa is recorded as 7.07. As to `CN(C)CCN` [N,N-dimethylethylenediamine], the pKa was 6.79. For `OCCNCCNCCO` [N,N′-di(2-hydroxylethyl)ethylenediamine], the pKa is recorded as 7.18.

In the case of `CCNCCNCC` [N,N′-diethylethylenediamine], the pKa is 7.77. On to `CNCCNC` [N,N′-dimethylethylenediamine], for which the pKa is 7.47. With meso-2,3-diaminopropane, the pKa is on record as 6.92.
